Laboratory results from publication PMC11149885 (PLOS ONE, 2024).
“And” between values parts separate entries of the source, which are not always exact repeats. Identical values can stand only once.

Key:
[1] = tested on: VEGF-induced angiogenesis on the CAM; assay: Gelatin sponge chick chorioallantoic membrane (CAM) assay; conditions: for Angiogenesis - Vessel thickness score, Mean: score 0-3; for Angiogenesis - Vessel thickness score, individual egg: score 0-3, one value per egg
[2] = tested on: VEGF-A–induced sprouting of HUVECs; assay: HUVEC spheroid sprouting assay; type: cell-based, human; conditions: for cumulative sprout length per spheroid (CSL), mean: 25 ng/mL VEGF-165, 24 hours
Method: The three TKI compounds were tested by Reaction Biology Europe (Freiburg, Germany) in the spheroid-based cellular angiogenesis assay to determine their effect on VEGF-A–induced sprouting of HUVECs. Primary HUVECs from pooled donors at passage 3 to 4 (PromoCell, Heidelberg, Germany) were grown in endothelial cell growth and basal medium (ECGM/ECBM, PromoCell). Test compounds were prepared as 100-fold concentrated stock solutions in DMSO and pre-diluted in basal medium. HUVECs were stimulated using 25 ng/mL VEGF-165 (Reaction Biology Europe, Freiburg, Germany) pre-diluted in basal medium.
Spheroids were prepared as described by pipetting 400 HUVECs in a hanging drop on plastic dishes to allow overnight spheroid aggregation. Fifty HUVEC spheroids were seeded in 0.9 mL of a collagen gel and pipetted into individual wells of a 24-well plate to allow polymerization. Test compounds and VEGF-165 were added after 30 minutes by pipetting 100 μL of a ten-fold concentrated solution onto the polymerized gel. Plates were incubated at 37°C for 24 hours, and cells were fixed by adding 4% paraformaldehyde (Roth, Karlsruhe, Germany). Sprouting intensity of HUVEC spheroids treated with the test samples was quantitated using an image analysis system to determine the cumulative sprout length (CSL) per spheroid. Images of single spheroids were captured using an inverted microscope and the digital imaging software NIS-Elements BR 3.0 (Nikon). Spheroid pictures were uploaded to Wimasis (www.wimasis.com) for image analysis. The CSL of each spheroid was determined using the imaging analysis tool WimSprout. The mean CSL of ten randomly selected spheroids was analyzed as an individual data point.

VEGFR1 [3] = target: T1, VEGFR1 (Homo sapiens, UniProt P17948); assay: HotSpot kinase screen; type: biochemical; parameters: purchased Millipore Corporation (Dundee, Scotland) or Reaction Biology Corporation (contract assay); conditions: 10μM ATP
Method: (§1) Measurement of kinase activity was performed by Reaction Biology Corporation (Reaction Biology Corporation, Malvern, PA), using the HotSpot™ assay. The screen focused on RTKs reported in the literature to play a major role in the regulation of angiogenesis (VEGFR1, VEGFR2, and VEGFR3; fibroblast growth factor receptor [FGFR] 1, 2, and 3; and platelet-derived growth factor receptor beta [PDGFRβ]) as well as an RTK essential for maintaining blood vessel stability (TIE2). For the profiling, specific kinase/substrate pairs and required cofactors were prepared in a reaction buffer (20mM Hepes [pH 7.5], 10mM MgCl2, 1mM EGTA, 0.02% Brij35, 0.02 mg/mL BSA, 0.1mM Na3VO4, 2mM DTT, 1% dimethyl sulfoxide [DMSO]). TKI compounds were diluted to 10μM and 1μM concentrations for the screens and after addition to the reaction buffer incubated for 20 minutes, followed by the addition of a mixture of ATP (Sigma, St. Louis, MO) and ^33P-ATP (Perkin Elmer, Waltham, MA) to a final ATP concentration of 10μM. Reactions were carried out at room temperature for 2 hours, followed by spotting of the reactions onto P81 ion exchange filter paper (Whatman Inc., Piscataway, NJ). Unbound phosphate was removed by extensive washing of the filters. […] Kinome TREEspot images representing levels of inhibition were prepared using Kinome Mapper (https://www.reactionbiology.com/resources/tools/kinase-mapper).

PDGFRβ = target: T2, PDGFRβ (Homo sapiens, UniProt P09619); assay: HotSpot kinase screen; type: biochemical; conditions: 10μM ATP
T2 construct: purchased Reaction Biology Corporation (contract assay)

FGFR2 = target: T3, FGFR2 (Homo sapiens, UniProt P21802); assay: HotSpot kinase screen; type: biochemical; conditions: 10μM ATP
T3 construct: purchased Reaction Biology Corporation (contract assay)
Method: as §1

VEGFR3 [4] = target: T4, VEGFR3 (Homo sapiens, UniProt P35916); assay: HotSpot kinase screen; type: biochemical; conditions: 10μM ATP
T4 construct: purchased Millipore Corporation (Dundee, Scotland) or Reaction Biology Corporation (contract assay)
Method: as §1

FGFR3 = target: T5, FGFR3 (Homo sapiens, UniProt P22607); assay: HotSpot kinase screen; type: biochemical; conditions: 1uM TKI, 10μM ATP
T5 construct: purchased Reaction Biology Corporation (contract assay)

FGFR1 = target: T6, FGFR1 (Homo sapiens, UniProt P11362); assay: HotSpot kinase screen; type: biochemical; conditions: 10μM ATP
T6 construct: purchased Reaction Biology Corporation (contract assay)

VEGFR1 [5] = target: T1, VEGFR1; assay: Ten-dose IC50 measurement; conditions: 10μM ATP
TIE2 [6] = target: T7, TIE2 (Homo sapiens, UniProt Q02763); assay: Ten-dose IC50 measurement; conditions: 10μM ATP
TIE2 [7] = target: T7, TIE2; assay: HotSpot kinase screen; type: biochemical; parameters: purchased Reaction Biology Corporation (contract assay); conditions: 1uM TKI, 10μM ATP
VEGFR3 [8] = target: T4, VEGFR3; assay: Ten-dose IC50 measurement; type: biochemical; conditions: 10μM ATP
[9] = 0.5 mg/kg bevacizumab (20.15μM)

T7 sequence (Q02763 23-1124): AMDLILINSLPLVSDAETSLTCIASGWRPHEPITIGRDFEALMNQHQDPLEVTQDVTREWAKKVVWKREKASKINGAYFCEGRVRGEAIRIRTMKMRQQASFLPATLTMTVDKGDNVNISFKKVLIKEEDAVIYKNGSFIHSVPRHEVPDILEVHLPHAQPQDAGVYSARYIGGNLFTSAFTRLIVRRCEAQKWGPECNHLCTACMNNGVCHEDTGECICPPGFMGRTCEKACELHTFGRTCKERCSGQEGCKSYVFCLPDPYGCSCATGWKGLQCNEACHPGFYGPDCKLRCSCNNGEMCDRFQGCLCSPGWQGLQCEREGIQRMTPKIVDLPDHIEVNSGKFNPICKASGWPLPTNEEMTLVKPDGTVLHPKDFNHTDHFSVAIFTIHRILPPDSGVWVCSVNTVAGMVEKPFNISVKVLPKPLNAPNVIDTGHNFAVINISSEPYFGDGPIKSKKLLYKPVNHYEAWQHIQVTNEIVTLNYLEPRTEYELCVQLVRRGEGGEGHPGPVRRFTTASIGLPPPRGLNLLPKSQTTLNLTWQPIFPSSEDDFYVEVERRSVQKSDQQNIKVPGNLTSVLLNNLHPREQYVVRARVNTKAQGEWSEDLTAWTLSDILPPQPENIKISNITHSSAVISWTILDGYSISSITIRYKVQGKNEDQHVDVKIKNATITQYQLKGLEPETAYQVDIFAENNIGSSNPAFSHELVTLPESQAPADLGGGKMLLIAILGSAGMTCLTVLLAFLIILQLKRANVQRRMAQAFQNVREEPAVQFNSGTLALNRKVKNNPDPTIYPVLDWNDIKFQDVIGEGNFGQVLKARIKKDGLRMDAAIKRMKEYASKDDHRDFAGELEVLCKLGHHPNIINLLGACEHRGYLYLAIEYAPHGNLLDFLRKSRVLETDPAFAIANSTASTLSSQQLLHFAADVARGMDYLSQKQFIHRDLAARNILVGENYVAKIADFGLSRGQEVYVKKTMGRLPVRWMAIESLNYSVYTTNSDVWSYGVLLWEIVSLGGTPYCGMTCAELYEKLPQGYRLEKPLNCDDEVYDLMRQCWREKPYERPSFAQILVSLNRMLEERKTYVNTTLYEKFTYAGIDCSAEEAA
T4 sequence (P35916 25-1363): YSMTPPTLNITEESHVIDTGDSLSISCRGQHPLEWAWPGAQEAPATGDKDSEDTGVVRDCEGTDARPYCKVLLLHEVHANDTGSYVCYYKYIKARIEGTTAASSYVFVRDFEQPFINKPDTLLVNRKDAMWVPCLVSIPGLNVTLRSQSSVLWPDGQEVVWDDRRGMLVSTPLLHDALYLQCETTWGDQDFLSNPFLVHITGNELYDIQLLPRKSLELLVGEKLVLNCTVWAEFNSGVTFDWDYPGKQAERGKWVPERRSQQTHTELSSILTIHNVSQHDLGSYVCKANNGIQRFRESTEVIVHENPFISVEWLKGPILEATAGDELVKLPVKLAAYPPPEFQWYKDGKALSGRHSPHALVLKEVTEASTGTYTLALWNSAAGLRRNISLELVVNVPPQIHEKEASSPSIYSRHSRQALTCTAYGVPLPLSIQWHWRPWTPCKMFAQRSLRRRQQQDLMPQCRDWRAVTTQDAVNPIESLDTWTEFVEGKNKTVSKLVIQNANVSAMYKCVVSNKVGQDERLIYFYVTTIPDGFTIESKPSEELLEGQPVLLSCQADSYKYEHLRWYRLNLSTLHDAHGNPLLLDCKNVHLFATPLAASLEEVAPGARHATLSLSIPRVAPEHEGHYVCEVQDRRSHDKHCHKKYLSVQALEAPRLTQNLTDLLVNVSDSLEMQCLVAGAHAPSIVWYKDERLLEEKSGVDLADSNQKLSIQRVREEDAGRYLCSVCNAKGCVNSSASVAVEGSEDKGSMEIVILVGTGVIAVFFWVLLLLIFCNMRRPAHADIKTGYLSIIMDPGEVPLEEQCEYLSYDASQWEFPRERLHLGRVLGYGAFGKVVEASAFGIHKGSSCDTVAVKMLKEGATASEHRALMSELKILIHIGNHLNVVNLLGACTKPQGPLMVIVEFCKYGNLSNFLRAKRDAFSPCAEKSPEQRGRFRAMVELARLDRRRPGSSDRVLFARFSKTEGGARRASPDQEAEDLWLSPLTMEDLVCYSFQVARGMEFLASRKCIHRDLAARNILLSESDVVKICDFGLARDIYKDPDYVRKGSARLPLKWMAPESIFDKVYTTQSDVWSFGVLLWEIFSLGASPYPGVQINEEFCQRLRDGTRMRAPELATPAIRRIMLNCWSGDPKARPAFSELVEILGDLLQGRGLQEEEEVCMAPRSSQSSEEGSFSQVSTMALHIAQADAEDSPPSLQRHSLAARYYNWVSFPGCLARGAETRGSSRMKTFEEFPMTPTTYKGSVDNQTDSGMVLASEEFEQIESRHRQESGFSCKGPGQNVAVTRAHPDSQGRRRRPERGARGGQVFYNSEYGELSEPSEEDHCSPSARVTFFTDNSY
T1 sequence (P17948 27-1338): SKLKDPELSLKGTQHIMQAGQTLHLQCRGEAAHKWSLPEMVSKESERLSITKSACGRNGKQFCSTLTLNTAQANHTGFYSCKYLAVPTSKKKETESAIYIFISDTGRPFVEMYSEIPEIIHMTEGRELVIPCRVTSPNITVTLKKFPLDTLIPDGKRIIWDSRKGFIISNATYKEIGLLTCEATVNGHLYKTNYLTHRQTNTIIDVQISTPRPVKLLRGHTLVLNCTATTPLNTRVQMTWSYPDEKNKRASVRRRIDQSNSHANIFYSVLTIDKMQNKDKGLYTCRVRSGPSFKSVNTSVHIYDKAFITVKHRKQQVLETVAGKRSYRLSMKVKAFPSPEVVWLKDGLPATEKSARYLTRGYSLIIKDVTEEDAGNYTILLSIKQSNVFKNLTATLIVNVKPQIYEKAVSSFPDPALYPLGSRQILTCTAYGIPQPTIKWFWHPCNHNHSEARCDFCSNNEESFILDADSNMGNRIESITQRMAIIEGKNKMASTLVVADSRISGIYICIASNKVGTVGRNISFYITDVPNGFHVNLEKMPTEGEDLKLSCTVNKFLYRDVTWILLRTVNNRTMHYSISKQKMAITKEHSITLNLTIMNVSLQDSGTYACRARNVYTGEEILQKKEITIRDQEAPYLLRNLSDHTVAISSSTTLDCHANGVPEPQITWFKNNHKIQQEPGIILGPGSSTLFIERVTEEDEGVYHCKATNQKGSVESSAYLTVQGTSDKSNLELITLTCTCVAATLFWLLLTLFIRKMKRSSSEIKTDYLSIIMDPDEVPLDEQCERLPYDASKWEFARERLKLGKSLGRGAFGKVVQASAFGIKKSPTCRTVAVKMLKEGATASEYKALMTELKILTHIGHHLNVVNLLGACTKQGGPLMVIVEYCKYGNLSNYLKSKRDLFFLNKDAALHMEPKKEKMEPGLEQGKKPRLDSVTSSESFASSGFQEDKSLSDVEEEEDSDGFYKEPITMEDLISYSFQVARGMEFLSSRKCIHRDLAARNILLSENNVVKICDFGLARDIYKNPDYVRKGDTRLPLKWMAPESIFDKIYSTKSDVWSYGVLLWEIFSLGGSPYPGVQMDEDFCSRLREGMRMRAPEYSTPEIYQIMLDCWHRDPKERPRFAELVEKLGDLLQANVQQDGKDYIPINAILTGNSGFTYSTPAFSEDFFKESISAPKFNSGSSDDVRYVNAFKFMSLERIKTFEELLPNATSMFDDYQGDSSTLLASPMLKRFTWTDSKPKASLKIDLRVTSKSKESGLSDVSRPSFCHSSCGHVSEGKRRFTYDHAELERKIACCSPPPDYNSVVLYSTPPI
T3 sequence (P21802 22-821): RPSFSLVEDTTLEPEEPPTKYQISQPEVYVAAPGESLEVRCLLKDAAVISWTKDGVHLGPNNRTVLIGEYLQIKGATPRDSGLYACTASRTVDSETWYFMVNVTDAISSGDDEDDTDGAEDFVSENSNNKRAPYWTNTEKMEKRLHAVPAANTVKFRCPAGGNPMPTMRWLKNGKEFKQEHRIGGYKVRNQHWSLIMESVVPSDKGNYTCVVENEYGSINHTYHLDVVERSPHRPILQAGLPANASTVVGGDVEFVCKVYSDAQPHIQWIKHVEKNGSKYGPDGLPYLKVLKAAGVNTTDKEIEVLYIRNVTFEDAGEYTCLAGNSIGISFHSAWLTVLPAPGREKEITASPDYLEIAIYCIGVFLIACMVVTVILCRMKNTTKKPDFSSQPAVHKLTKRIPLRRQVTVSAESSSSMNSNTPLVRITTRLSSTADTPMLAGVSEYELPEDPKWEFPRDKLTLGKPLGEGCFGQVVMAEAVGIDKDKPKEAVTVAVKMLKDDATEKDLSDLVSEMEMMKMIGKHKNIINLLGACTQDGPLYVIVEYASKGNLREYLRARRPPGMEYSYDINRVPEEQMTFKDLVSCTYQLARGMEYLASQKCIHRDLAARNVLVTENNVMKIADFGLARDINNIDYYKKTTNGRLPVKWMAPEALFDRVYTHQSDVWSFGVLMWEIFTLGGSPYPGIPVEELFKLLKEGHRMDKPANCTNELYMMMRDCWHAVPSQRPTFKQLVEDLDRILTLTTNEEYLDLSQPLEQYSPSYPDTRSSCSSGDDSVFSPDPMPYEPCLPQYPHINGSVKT

`CCN(CC)CCNC(=O)c1c(C)[nH]c(/C=C2\C(=O)Nc3ccc(F)cc32)c1C` [Sunitinib] was tested, and the “Angiogenesis - Vessel number, Mean” value ([1]; TKI at 200 x VEGFR2 IC50) was 7, the “Angiogenesis - Vessel number, individual egg” value ([1]; TKI at 200 x VEGFR2 IC50, one value per egg) was 8.67 and 8.33 and 1.67 and 6.67 and 3.33 and the “reduction of the number of blood vessels perfusing the sponges vs negative control” value ([1]; TKI at 200× VEGFR2 IC50 dose) was 49.3%. The “Angiogenesis - Vessel thickness score, Mean” value ([1]; TKI at VEGFR2 IC50 dose) was 1.8, the “Angiogenesis - Vessel thickness score, individual egg” value ([1]; TKI at VEGFR2 IC50 dose) was 3 and 0.67 and 2 and 2.33 and 1.33 and 1 and the “cumulative sprout length per spheroid (CSL), mean” value ([2]; 1.00E-05 M TKI) was 99. For the same compound, the “cumulative sprout length per spheroid (CSL), mean” value ([2]; 1.00E-06 M TKI) was 298, the “cumulative sprout length per spheroid (CSL), mean” value ([2]; 1.00E-07 M TKI) was 387 and the “cumulative sprout length per spheroid (CSL), mean” value ([2]; 3.00E-06 M TKI) was 173. The “cumulative sprout length per spheroid (CSL), mean” value ([2]; 3.00E-07 M TKI) was 230, the “cumulative sprout length per spheroid (CSL), mean” value ([2]; 3.00E-08 M TKI) was 893 and the “vessel sprouting (representative spheroid images)” value ([2]; highest test concentration of 1×10^–5M) was “zero vessel sprouting”. For the same compound, the “Avg % Inhibition VEGFR1” value (VEGFR1 [3]; 1uM TKI) was 77.03%, the “Avg % Inhibition VEGFR1” value (VEGFR1 [3]; 10uM TKI) was 93.14% and the “Avg % Inhibition PDGFRb” value (PDGFRβ; 1uM TKI) was 92.22%. For the same compound, the “Avg % Inhibition PDGFRb” value (PDGFRβ; 10uM TKI) was 97.19%, the “Avg % Inhibition FGFR2” value (FGFR2; 1uM TKI) was 77.42% and the “Avg % Inhibition FGFR2” value (FGFR2; 10uM TKI) was 98.03%. The “Avg % Inhibition VEGFR3” value (VEGFR3 [4]; 1uM TKI) was 86.7%, the “Avg % Inhibition VEGFR3” value (VEGFR3 [4]; 10uM TKI) was 99.18% and the “Avg % Inhibition FGFR3” value (FGFR3) was 79.29%. For the same compound, the “Avg % Inhibition FGFR1” value (FGFR1; 1uM TKI) was 61.61%, the “Avg % Inhibition FGFR1” value (FGFR1; 10uM TKI) was 93.09% and the “%Activity VEGFR1” value (VEGFR1 [5]; 1.00E-05 M TKI) was 2.53%. The “%Activity VEGFR1” value (VEGFR1 [5]; 1.11E-06 M TKI) was 20.58%, the “%Activity VEGFR1” value (VEGFR1 [5]; 1.37E-08 M TKI) was 78.18% and the “%Activity VEGFR1” value (VEGFR1 [5]; 1.52E-09 M TKI) was 84.25%. The “%Activity VEGFR1” value (VEGFR1 [5]; 3.33E-06 M TKI) was 8.53%, the “%Activity VEGFR1” value (VEGFR1 [5]; 3.70E-07 M TKI) was 35.25% and the “%Activity VEGFR1” value (VEGFR1 [5]; 4.12E-08 M TKI) was 63.70%. For the same compound, the “%Activity VEGFR1” value (VEGFR1 [5]; 4.57E-09 M TKI) was 84.35%, the “%Activity VEGFR1” value (VEGFR1 [5]; 5.08E-10 M TKI) was 93.32% and the “%Activity TIE2” value (TIE2 [6]; 1.00E-05 M TKI) was 44.88%. For the same compound, the “%Activity TIE2” value (TIE2 [6]; 1.11E-06 M TKI) was 93.41%, the “%Activity TIE2” value (TIE2 [6]; 1.37E-08 M TKI) was 98.62% and the “%Activity TIE2” value (TIE2 [6]; 1.52E-09 M TKI) was 99.65%. The “%Activity TIE2” value (TIE2 [6]; 3.33E-06 M TKI) was 74.48%, the “%Activity TIE2” value (TIE2 [6]; 3.70E-07 M TKI) was 96.23% and the “%Activity TIE2” value (TIE2 [6]; 4.12E-08 M TKI) was 95.60%. The “%Activity TIE2” value (TIE2 [6]; 4.57E-09 M TKI) was 97.42%, the “%Activity TIE2” value (TIE2 [6]; 5.08E-10 M TKI) was 95.09% and the “Avg % Inhibition TIE2” value (TIE2 [7]) was 5.03%. For the same compound, the “Avg % Inhibition TIE2” value (TIE2 [7]; listed as sunitinib) was 5%, the “%Activity VEGFR3” value (VEGFR3 [8]; 1.00E-05 M TKI) was 1.67% and the “%Activity VEGFR3” value (VEGFR3 [8]; 1.11E-06 M TKI) was 9.53%. For the same compound, the “%Activity VEGFR3” value (VEGFR3 [8]; 1.23E-07 M TKI) was 31.11%, the “%Activity VEGFR3” value (VEGFR3 [8]; 1.37E-08 M TKI) was 63.61% and the “%Activity VEGFR3” value (VEGFR3 [8]; 1.52E-09 M TKI) was 80.77%. For the same compound, the “%Activity VEGFR3” value (VEGFR3 [8]; 3.33E-06 M TKI) was 3.43%, the “%Activity VEGFR3” value (VEGFR3 [8]; 3.70E-07 M TKI) was 18.20% and the “%Activity VEGFR3” value (VEGFR3 [8]; 4.12E-08 M TKI) was 47.10%. The “%Activity VEGFR3” value (VEGFR3 [8]; 4.57E-09 M TKI) was 73.23% and the “%Activity VEGFR3” value (VEGFR3 [8]; 5.08E-10 M TKI) was 86.68%.
For “Bevacizumab: known anti-VEGF antibody, reference compound (positive control) in the CAM assay”, the “Angiogenesis - Vessel number, Mean” value [1, 9] was 11.4, the “Angiogenesis - Vessel number, individual egg” value ([1]; 0.5 mg/kg bevacizumab (20.15μM), one value per egg) was 9.33 and 9.67 and the “vessel reduction compared to the negative control” value ([1]; 0.5 mg/kg bevacizumab (20.15μM), p = 0.05) was 18%. For the same compound, the “Angiogenesis - Vessel thickness score, Mean” value [1, 9] was 0.8 and the “Angiogenesis - Vessel thickness score, individual egg” value [1, 9] was 1.33 and 0.33 and 1.67 and 0 and 1.
